Data taken from ChEMBL document CHEMBL1909046, “DrugMatrix in vitro pharmacology data”.

Experiments:
D(3) dopamine receptor = D(3) dopamine receptor (Homo sapiens, UniProt P35462); assay: DRUGMATRIX: Dopamine D3 radioligand binding (ligand: [3H] Spiperone); assay type: cell membranes, CHO, Membrane
Cannabinoid receptor 1 = Cannabinoid receptor 1 (Homo sapiens, UniProt P21554); assay type: cell membranes, Membrane; settings: chem-1; also: in other assays of this panel Not Active means under 50% inhibition at 10 µM
Chain of Cannabinoid receptor 1 (P21554 whole entry): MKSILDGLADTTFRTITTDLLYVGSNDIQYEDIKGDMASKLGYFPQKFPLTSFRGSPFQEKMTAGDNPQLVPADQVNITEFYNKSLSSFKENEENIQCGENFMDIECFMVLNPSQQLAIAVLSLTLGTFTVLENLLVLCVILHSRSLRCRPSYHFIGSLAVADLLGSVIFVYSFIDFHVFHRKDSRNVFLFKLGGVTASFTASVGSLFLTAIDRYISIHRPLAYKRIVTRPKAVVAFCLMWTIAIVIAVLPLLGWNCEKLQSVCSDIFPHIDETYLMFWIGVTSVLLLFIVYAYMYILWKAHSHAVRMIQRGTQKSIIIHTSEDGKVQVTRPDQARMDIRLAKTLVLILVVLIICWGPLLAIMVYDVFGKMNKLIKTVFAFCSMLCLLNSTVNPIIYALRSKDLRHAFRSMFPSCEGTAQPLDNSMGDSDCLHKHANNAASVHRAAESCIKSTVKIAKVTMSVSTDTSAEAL

[1] = biological target: T1, Polyunsaturated fatty acid lipoxygenase ALOX15 (Oryctolagus cuniculus, UniProt P12530); assay: biochemical; assay type: tissue-based, Reticulocytes; settings: reticulocytes;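 also: inhibition of 15-lipoxygenase enzyme activity measured with linoleic acid as the substrate; in other assays of this panel Not Active means under 50% inhibition at 10 µM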
T1 sequence (P12530 whole entry): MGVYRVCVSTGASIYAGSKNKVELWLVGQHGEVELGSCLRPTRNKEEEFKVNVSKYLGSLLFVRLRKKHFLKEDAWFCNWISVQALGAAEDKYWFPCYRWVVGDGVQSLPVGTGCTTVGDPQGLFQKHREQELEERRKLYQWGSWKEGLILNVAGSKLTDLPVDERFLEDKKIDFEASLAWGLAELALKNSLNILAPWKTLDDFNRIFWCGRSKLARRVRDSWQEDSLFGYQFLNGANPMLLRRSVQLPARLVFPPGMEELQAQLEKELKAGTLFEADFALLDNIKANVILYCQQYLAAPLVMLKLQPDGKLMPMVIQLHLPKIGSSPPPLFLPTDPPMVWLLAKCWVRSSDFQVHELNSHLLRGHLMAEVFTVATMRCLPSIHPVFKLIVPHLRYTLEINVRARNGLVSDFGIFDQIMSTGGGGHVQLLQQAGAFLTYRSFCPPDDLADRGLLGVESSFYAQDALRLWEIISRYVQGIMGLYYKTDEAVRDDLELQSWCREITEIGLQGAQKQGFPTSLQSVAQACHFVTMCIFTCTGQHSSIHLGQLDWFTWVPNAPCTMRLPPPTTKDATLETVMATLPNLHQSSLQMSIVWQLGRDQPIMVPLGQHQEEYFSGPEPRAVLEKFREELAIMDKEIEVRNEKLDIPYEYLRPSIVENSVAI

[2] = biological target: T2, Nitric oxide synthase, inducible (Mus musculus, UniProt P29477); parameters: species or system Escherichia coli;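 also: inhibition of iNOS enzyme activity measured with L-arginine as substrate; in other assays of this panel Not Active means under 50% inhibition at 10 µM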
T2 sequence (P29477 whole entry): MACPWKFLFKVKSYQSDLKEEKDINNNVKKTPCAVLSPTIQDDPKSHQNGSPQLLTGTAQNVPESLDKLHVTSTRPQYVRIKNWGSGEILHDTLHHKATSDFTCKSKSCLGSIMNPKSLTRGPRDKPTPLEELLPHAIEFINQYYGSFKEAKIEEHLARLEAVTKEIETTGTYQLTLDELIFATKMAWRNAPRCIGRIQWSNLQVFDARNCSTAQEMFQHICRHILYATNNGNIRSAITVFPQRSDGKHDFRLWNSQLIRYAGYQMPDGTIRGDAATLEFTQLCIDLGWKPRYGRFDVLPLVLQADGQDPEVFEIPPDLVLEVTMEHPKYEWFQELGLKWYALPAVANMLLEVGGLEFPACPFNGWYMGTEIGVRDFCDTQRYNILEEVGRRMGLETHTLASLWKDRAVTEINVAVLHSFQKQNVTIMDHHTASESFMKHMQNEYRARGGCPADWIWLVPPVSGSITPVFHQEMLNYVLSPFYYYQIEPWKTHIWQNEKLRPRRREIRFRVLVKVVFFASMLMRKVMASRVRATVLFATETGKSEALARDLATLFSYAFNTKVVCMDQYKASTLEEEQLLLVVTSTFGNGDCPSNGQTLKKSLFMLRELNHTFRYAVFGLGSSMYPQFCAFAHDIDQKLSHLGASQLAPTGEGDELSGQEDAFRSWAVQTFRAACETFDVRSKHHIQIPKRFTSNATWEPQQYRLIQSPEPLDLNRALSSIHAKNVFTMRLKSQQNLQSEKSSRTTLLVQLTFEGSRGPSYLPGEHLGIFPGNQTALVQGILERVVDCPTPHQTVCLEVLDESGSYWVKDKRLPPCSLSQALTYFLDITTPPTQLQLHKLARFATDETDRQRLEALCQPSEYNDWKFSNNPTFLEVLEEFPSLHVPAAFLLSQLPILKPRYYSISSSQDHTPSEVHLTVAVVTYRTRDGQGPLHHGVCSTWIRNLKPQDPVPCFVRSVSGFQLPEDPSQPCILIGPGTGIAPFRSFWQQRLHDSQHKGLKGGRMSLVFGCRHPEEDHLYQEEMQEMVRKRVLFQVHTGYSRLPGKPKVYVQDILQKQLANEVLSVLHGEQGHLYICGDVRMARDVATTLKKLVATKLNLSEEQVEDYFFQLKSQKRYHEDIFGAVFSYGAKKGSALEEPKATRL

Cytochrome P450 2E1 = Cytochrome P450 2E1 (Homo sapiens, UniProt P05181); settings: bti-tn-5b1-4; also: in other assays of this panel Not Active means under 50% inhibition at 10 µM
Chain of Cytochrome P450 2E1 (P05181 whole entry): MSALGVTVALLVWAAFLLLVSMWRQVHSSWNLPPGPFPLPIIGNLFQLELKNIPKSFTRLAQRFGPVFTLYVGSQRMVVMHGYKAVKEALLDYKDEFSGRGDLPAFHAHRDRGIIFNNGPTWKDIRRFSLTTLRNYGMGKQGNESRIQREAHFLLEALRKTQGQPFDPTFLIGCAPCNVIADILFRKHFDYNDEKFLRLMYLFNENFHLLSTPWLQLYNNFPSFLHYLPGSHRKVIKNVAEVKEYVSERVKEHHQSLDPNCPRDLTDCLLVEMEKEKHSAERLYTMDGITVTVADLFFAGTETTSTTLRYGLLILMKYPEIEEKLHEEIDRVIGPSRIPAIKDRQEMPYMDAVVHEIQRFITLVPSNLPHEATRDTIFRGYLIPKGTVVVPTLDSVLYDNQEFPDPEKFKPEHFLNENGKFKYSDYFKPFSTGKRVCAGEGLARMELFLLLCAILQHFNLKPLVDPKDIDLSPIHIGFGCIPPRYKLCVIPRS

[3] = biological target: Tyrosine-protein kinase Lck (Homo sapiens, UniProt P06239); assay: DRUGMATRIX: Protein Tyrosine Kinase, LCK enzyme inhibition (substrate: Poly(Glu:Tyr)); assay type: cell-based, Insect cells; settings: Not Active = under 50% inhibition at 10 µM
Chain of Tyrosine-protein kinase Lck (P06239 whole entry): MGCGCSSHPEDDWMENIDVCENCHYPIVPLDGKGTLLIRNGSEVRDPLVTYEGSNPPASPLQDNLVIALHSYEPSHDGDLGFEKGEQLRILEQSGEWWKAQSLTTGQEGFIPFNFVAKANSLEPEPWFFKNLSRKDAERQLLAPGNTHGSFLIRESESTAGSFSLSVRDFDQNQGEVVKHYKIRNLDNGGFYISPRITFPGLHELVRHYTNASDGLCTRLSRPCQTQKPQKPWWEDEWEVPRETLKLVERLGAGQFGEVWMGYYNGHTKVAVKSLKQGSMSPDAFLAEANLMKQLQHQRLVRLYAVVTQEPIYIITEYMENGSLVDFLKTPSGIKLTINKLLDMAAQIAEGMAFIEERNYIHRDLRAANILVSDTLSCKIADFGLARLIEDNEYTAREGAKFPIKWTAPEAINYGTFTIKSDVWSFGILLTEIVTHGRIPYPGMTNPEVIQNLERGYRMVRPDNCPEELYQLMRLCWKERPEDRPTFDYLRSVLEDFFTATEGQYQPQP

[4] = biological target: T3, Type-2 angiotensin II receptor (Homo sapiens, UniProt P50052); assay type: cell-based; settings: cho-k1; also: in other assays of this panel Not Active means under 50% inhibition at 10 µM
T3 sequence (P50052 whole entry): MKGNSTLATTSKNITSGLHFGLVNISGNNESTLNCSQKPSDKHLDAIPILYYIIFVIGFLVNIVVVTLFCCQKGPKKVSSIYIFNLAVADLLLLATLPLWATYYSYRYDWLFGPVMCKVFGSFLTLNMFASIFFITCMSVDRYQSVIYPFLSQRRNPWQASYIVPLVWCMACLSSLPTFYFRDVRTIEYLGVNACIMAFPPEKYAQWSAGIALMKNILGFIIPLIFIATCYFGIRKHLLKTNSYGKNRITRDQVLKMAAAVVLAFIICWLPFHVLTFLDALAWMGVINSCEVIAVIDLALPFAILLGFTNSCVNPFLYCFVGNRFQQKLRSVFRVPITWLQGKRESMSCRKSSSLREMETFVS

Glycine receptor = Glycine receptor (Rattus norvegicus, UniProt P22771+P24524+P07727+P20781); assay type: cell membranes, Wistar, Spinal cord, Membrane; also: in other assays of this panel Not Active means under 50% inhibition at 10 µM
[5] = DRUGMATRIX: Calcium Channel Type L, Dihydropyridine radioligand binding (ligand: [3H] Nitrendipine); assay type: cell membranes, Rattus norvegicus, Wistar, Cerebral cortex, Membrane; settings: Not Active = under 50% inhibition at 10 µM
Melanocortin receptor 4 = Melanocortin receptor 4 (Homo sapiens, UniProt P32245); assay type: cell membranes, Membrane; settings: hek293; also: in other assays of this panel Not Active means under 50% inhibition at 10 µM
Chain of Melanocortin receptor 4 (P32245 whole entry): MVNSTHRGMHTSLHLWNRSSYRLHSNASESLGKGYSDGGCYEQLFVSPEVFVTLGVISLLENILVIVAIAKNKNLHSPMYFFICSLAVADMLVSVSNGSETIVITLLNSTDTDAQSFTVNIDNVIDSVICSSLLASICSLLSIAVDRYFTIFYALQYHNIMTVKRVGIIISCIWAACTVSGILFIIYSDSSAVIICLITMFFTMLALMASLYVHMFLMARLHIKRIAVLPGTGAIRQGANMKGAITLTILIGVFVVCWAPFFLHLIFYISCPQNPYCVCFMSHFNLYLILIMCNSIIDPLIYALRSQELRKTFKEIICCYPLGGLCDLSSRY

[6] = DRUGMATRIX: Leukotriene, BLT (LTB4) radioligand binding (ligand: [3H]LTB4); assay type: cell membranes, Membrane; settings: u-937; Not Active = under 50% inhibition at 10 µM
[7] = biological target: Mitogen-activated protein kinase 14 (Homo sapiens, UniProt Q16539); parameters: species or system Escherichia coli
Chain of Mitogen-activated protein kinase 14 (Q16539 whole entry): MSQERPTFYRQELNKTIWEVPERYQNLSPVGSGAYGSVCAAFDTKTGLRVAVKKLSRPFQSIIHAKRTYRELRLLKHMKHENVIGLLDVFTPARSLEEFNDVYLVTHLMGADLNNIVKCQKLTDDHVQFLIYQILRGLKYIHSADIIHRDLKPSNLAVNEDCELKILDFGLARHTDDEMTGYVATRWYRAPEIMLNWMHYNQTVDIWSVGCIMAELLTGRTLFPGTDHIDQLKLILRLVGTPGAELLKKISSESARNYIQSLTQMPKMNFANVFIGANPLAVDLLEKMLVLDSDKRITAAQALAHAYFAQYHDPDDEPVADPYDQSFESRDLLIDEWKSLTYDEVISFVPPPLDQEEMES

Chain of D(3) dopamine receptor (P35462 whole entry): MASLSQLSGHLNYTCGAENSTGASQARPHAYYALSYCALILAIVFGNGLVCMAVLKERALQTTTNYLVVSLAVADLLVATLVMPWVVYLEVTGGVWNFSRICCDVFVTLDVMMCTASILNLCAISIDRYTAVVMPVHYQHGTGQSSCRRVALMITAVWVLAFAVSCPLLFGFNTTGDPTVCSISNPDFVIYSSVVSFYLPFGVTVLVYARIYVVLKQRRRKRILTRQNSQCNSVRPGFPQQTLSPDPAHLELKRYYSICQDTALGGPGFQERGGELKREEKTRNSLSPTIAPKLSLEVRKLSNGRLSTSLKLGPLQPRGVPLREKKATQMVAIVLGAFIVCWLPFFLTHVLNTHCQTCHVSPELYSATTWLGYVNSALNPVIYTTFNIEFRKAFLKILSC

Cc1ccccc1N1CCN(CCc2nnc3n2CCCC3)CC1 [DAPIPRAZOLE]
IC50 (D(3) dopamine receptor; cho): Not Active | IC50 (Cannabinoid receptor 1): Not Active | IC50 [1]: Not Active | IC50 [2]: Not Active | IC50 (Cytochrome P450 2E1): Not Active | Ki (Cytochrome P450 2E1): Not Active | IC50 ([3]; insect cells): Not Active | IC50 [4]: Not Active | IC50 (Glycine receptor): Not Active | IC50 [5]: Not Active | Ki [5]: Not Active | IC50 (Melanocortin receptor 4): Not Active | IC50 [6]: Not Active | Ki [6]: Not Active | IC50 [7]: Not Active

CC1=Nc2ccc(Cl)cc2S(=O)(=O)N1 [DIAZOXIDE]
IC50 (D(3) dopamine receptor; cho): Not Active | IC50 (Cannabinoid receptor 1): Not Active | IC50 [1]: Not Active | IC50 [2]: Not Active | IC50 (Cytochrome P450 2E1): Not Active | Ki (Cytochrome P450 2E1): Not Active | IC50 ([3]; insect cells): Not Active | IC50 [4]: Not Active | IC50 (Glycine receptor): Not Active | IC50 [5]: Not Active | Ki [5]: Not Active | IC50 (Melanocortin receptor 4): Not Active | IC50 [6]: Not Active | Ki [6]: Not Active | IC50 [7]: Not Active

CC(=O)OCC(=O)[C@@]1(OC(C)=O)[C@@H](C)C[C@H]2[C@@H]3C[C@H](F)C4=CC(=O)C=C[C@]4(C)[C@@]3(F)[C@@H](O)C[C@@]21C [DIFLORASONE DIACETATE]
IC50 (D(3) dopamine receptor; cho): Not Active | IC50 (Cannabinoid receptor 1): Not Active | IC50 [1]: Not Active | IC50 [2]: Not Active | IC50 (Cytochrome P450 2E1): Not Active | Ki (Cytochrome P450 2E1): Not Active | IC50 ([3]; insect cells): Not Active | IC50 [4]: Not Active | IC50 (Glycine receptor): Not Active | IC50 [5]: Not Active | Ki [5]: Not Active | IC50 (Melanocortin receptor 4): Not Active | IC50 [6]: Not Active | Ki [6]: Not Active | IC50 [7]: Not Active

COc1ccc([C@@H]2Sc3ccccc3N(CCN(C)C)C(=O)[C@@H]2OC(C)=O)cc1 [DILTIAZEM]
IC50 (D(3) dopamine receptor; cho): Not Active | IC50 (Cannabinoid receptor 1): Not Active | IC50 [1]: Not Active | IC50 [2]: Not Active | IC50 (Cytochrome P450 2E1): Not Active | Ki (Cytochrome P450 2E1): Not Active | IC50 ([3]; insect cells): Not Active | IC50 [4]: Not Active | IC50 (Glycine receptor): Not Active | IC50 [5]: Not Active | Ki [5]: Not Active | IC50 (Melanocortin receptor 4): Not Active | IC50 [6]: Not Active | Ki [6]: Not Active | IC50 [7]: Not Active

CCc1ccc(C(=O)C(C)CN2CCCCC2)cc1 (stereo unspecified) [EPERISONE]
IC50 (D(3) dopamine receptor; cho): Not Active | IC50 (Cannabinoid receptor 1): Not Active | IC50 [1]: Not Active | IC50 [2]: Not Active | IC50 (Cytochrome P450 2E1): Not Active | Ki (Cytochrome P450 2E1): Not Active | IC50 ([3]; insect cells): Not Active | IC50 [4]: Not Active | IC50 (Glycine receptor): Not Active | IC50 [5]: Not Active | Ki [5]: Not Active | IC50 (Melanocortin receptor 4): Not Active | IC50 [6]: Not Active | Ki [6]: Not Active | IC50 [7]: Not Active

C=C1CC[C@H](O)C/C1=C/C=C1\CCC[C@]2(C)[C@@H]([C@H](C)/C=C/[C@H](C)C(C)C)CC[C@@H]12 [ERGOCALCIFEROL]
IC50 (D(3) dopamine receptor; cho): Not Active | IC50 (Cannabinoid receptor 1): Not Active | IC50 [1]: Not Active | IC50 [2]: Not Active | IC50 (Cytochrome P450 2E1): Not Active | Ki (Cytochrome P450 2E1): Not Active | IC50 ([3]; insect cells): Not Active | IC50 [4]: Not Active | IC50 (Glycine receptor): Not Active | IC50 [5]: Not Active | Ki [5]: Not Active | IC50 (Melanocortin receptor 4): Not Active | IC50 [6]: Not Active | Ki [6]: Not Active | IC50 [7]: Not Active

CN1C[C@H](C(=O)N[C@]2(C)O[C@@]3(O)[C@@H]4CCCN4C(=O)[C@H](Cc4ccccc4)N3C2=O)C=C2c3cccc4[nH]cc(c34)C[C@H]21 [ERGOTAMINE]
IC50 (D(3) dopamine receptor; read-out: IC50): 4.31 nM | Ki (D(3) dopamine receptor; read-out: Ki): 1.46 nM | IC50 (Cannabinoid receptor 1): Not Active | IC50 [1]: Not Active | IC50 [2]: Not Active | IC50 (Cytochrome P450 2E1): Not Active | Ki (Cytochrome P450 2E1): Not Active | IC50 ([3]; read-out: IC50): 6.5 µM | IC50 [4]: Not Active | IC50 (Glycine receptor): Not Active | IC50 [5]: Not Active | Ki [5]: Not Active | IC50 (Melanocortin receptor 4): Not Active | IC50 [6]: Not Active | Ki [6]: Not Active | IC50 [7]: Not Active

CCc1cccc2c3c([nH]c12)C(CC)(CC(=O)O)OCC3 (stereo unspecified) [ETODOLAC]
IC50 (D(3) dopamine receptor; cho): Not Active | IC50 (Cannabinoid receptor 1): Not Active | IC50 [1]: Not Active | IC50 [2]: Not Active | IC50 (Cytochrome P450 2E1): Not Active | Ki (Cytochrome P450 2E1): Not Active | IC50 ([3]; insect cells): Not Active | IC50 [4]: Not Active | IC50 (Glycine receptor): Not Active | IC50 [5]: Not Active | Ki [5]: Not Active | IC50 (Melanocortin receptor 4): Not Active | IC50 [6]: Not Active | Ki [6]: Not Active | IC50 [7]: Not Active

Cc1c(-c2ccccc2)oc2c(C(=O)OCCN3CCCCC3)cccc2c1=O [FLAVOXATE]
IC50 (D(3) dopamine receptor; cho): Not Active | IC50 (Cannabinoid receptor 1): Not Active | IC50 [1]: Not Active | IC50 [2]: Not Active | IC50 (Cytochrome P450 2E1): Not Active | Ki (Cytochrome P450 2E1): Not Active | IC50 ([3]; insect cells): Not Active | IC50 [4]: Not Active | IC50 (Glycine receptor): Not Active | IC50 [5]: Not Active | Ki [5]: Not Active | IC50 (Melanocortin receptor 4): Not Active | IC50 [6]: Not Active | Ki [6]: Not Active | IC50 [7]: Not Active
